Measured values as given in US20240285631A1, “METHODS OF TREATING VASCULAR MALFORMATIONS” (priority 2023, published 2024).

What was measured:
[1] = system: retinal ECs of BMP9/10 Abs-treated Fucci2 animals; assay: Endothelial cell cycle state in BMP9/10 Abs-treated Fucci2 reporter pups; type: in vivo, mouse; details: BMP9/10 Abs + CDK4/6i, P7 Fucci2
Description: All animal protocols and procedures were approved by the University of Virginia Animal Care and Use Committee and complied with all ethical regulations. Cdh5Cre^ERT21Rha^43 and Alk1^flox/flox were gifted from Drs. Ralf Adams and Paul Oh, respectively. R26p-Fucci2 (Fucci2) (Accession #CDB0203T)^44 and C57bl/6 mice were purchased from Riken and Jax, respectively. Cdh5Cre^ERT2 mice were crossed with Alk1^flox/flox mice (6-8-week-old) to generate Alk1EC^iKO pups. Cre activity in Alk1EC^iKO was induced in pups at P3 via a single intraperitoneal (i.p.) injection of Tamoxifen (Tx; Sigma T5648, […] of 4 mg/ml, resuspended in 10% ethanol and 90% corn oil). Alk1^flox/flox littermates were used as controls. Alk1EC^iKO mice were crossed with Fucci2 mice to generate Alk1EC^iKO-Fucci2 pups.

ENDOGLIN = ENDOGLIN expression in retinal venous ECs of Alk1EC^iKO mice; type: in vivo, mouse; details: both mRNA and protein levels
Method: FIG. 8A illustrates Western Blot analysis of the phosphorylation of the indicated proteins in response to VEGF-A (1.5 nM) in control vs. CDK4/6i treated HUVECs. FIG. 8B illustrates Western Blot analysis of the phosphorylation of the indicated proteins in response to BMP9 (10 ng/ml) in control vs. CDK4/6i-treated HUVECs. FIG. 8C illustrates quantification of phosphorylation normalized to total protein levels. (N=5 independent experiments, Data are mean±SEM, Mann-Whitney U test: *p<0.05). […] FIG. 8E illustrates ENDOGLIN (green) and IB4 (white) staining of retinal flat-mounts from P5 Alk1^fl/fl, Alk1^fl/fl treated with CDK4/6i, Alk1EC^iKO, and Alk1EC^iKO treated with CDK4/6i animals (A: Artery; V: Vein). FIG. 8F illustrates quantification of fluorescence intensity of ENDOGLIN staining in (FIG. 8E) retinal venous vessels of the indicated animals (N=4 retinas per group. Data are mean±SEM, one-way ANOVA with Tukey's multiple comparison test: *p<0.05; ns p>0.05). FIG. 8G illustrates timeline used for Tx injection, and CDK4/6i and FLT1 blocking antibody treatment of Alk1EC^iKO pups. […]
Eyes from P7 pups were pre-fixed in 4% PFA for 20 min at room temperature (RT). […] Quantification of vascular progression, density, AVM numbers and vessel diameters in the retinal vasculature were performed with Image J software.

[2] = system: vascular malformations in Alk1EC^iKO pups; assay: Blue latex dye vascular perfusion of brain, lungs and intestinal tract in Alk1EC^iKO pups; type: in vivo, mouse
Description: FIG. 5A illustrates a timeline used for tamoxifen (Tx) injection and CDK4/6i treatment of Alk1EC^iKO pups. FIG. 5B illustrates representative images showing retinal vasculature labelled with IB4 from control, Alk1EC^iKO, and Alk1EC^iKO+CDK4/6i-treated P5 animals. Bar graphs showing (FIG. 5C) quantification of AV shunt number per retina, (FIG. 5D) vascular density, and (FIG. 5E) vascular progression. (N=8 to 10 retinas/group, at least 4 mice). Data are mean±SEM, One-way ANOVA, *p≤0.05, **p≤0.01). FIG. 5F illustrates a timeline used for Tx injection and CDK4/6i treatment of Alk1EC^iKO pups for blue latex dye perfusion experiments. FIG. 5G illustrates blue latex dye vascular perfusion in brains from control, Alk1EC^iKO, and Alk1EC^iKO+CDK4/6i-treated P7 animals. […] FIG. 5H illustrates the quantification of left middle cerebral artery (MCA) and basilar artery (BA) in control, Alk1EC^iKO, and Alk1EC^iKO+CDK4/6i-treated animals. FIG. 5I illustrates the quantification of the number of latex filled veins in control, Alk1EC^iKO, and Alk1EC^iKO+CDK4/6i-treated animals. (N=4 to 6 mice/group. Data are mean±SEM, one-way ANOVA with Holm-Šidàk's multiple comparison test, *p≤0.05, **p≤0.01, ***p<0.001). Scale bar (G): 4 mm.
About 50% of HHT patients harbor mutations in the Acvrl1 gene^1, which encodes for the ALK1 receptor. To validate the clinical relevance of the use of Palbociclib for the treatment of HHT, we crossed Cdh5Cre^ERT2 mice with Alk1^flox/flox mice (6-8-week-old) to generate an endothelial-specific inducible deletion of Alk1 (referred to as Alk1EC^iKO), which is an established preclinical mouse model of human HHT type 2^12,25. Neonatal Alk1EC^iKO pups received a single i.p. injection of tamoxifen at P3 to induce Alk1 gene deletion and were then treated with Palbociclib via oral gavage at P4, and their retinal vasculature was analyzed at P5 (FIG. 5A). […] Due to the relatively short survival time post-tamoxifen induction in Alk1EC^iKO mice (approximately 48 hours), our study is limited to a single Palbociclib injection, which represents a technical challenge in exploring additional treatments. […] Single Cell RNA sequencing analysis of Palbociclib effects on endothelial arteriovenous identity in Alk1EC^iKO mice.

[3] = system: human umbilical vein endothelial cells; assay: Proliferation of human umbilical vein endothelial cells assessed by EdU uptake; type: cell-based; details: in vitro, dose response
Description: FIG. 16 illustrates palbociclib, CVT-313 and ribociclib dose response effects on proliferation of human umbilical vein endothelial cells assessed by EdU uptake.
This example discusses that endothelial cell cycle dysregulation is a mechanism involved in the development of arterio-venous malformations in HHT, as well as other types of vascular malformations named above. Palbociclib, a FDA-approved cell cycle inhibitor, could be used to prevent arterio-venous and other malformations, including venous, capillary, lymphatic and cerebral cavernous malformations.

With `CC(=O)c1c(C)c2cnc(Nc3ccc(N4CCNCC4)cn3)nc2n(C2CCCC2)c1=O` [Palbociclib, 6-acetyl-8-cyclopentyl-5-methyl-2-[5-(1-piperazinyl)pyridine-2-ylamino]pyrido[2,3-d]pyrimidin-7(8H)-one] the “EC cell cycle state (early G1, late G1, S/G2/M) in veins, arteries and capillaries” value [1] was “predominantly in late G1 state”, the “vascular malformations in retina of Fucci2 pups” value [1] was “vascular malformations were absent” and the “expression of ENDOGLIN in venous ECs” value (ENDOGLIN) was “promoted the expression of ENDOGLIN in venous ECs”. For the same compound, the “veins filled with blue latex (arteriovenous shunts) in the intestinal tract” value ([2]; P7, gastrointestinal tract) was “absent”, the “diameter of the basilar and middle cerebral arteries” value ([2]; brain, single dose of Palbociclib at P4) was “trend toward normalization” and the “number of latex-filled veins in brain” value ([2]; brain, vs untreated Alk1EC^iKO) was “significantly reduced”. For the same compound, the “latex blue dye extravasation across the intrapulmonary bed” value ([2]; lungs) was “dye extravasation was reduced” and the “EC proliferation assessed by EdU uptake” value [3] was “inhibit EC proliferation”.
